Laboratory results as given in patent publication US12357649B2, “Glycoalkaloid combinations and various uses thereof” (priority 2016, dated 2025).

Test: Stability of cream formulation: HPLC assay of solamargine
Format: physicochemical
Conditions: cream with 5% urea, 10% salicylic, 25°C, 60% RH
Method: Visual appearance was conducted by comparison to standard commercially available solamargine cream composition. High-Performance Liquid Chromatography (HPLC) to determine quantity of solamargine in the cream, substantially as described in WO 2000061153 A1.

C[C@@H]1CC[C@@]2(NC1)O[C@H]1C[C@H]3[C@@H]4CC=C5C[C@@H](O[C@@H]6O[C@H](CO)[C@@H](O[C@@H]7O[C@@H](C)[C@H](O)[C@@H](O)[C@H]7O)[C@H](O)[C@H]6O[C@@H]6O[C@@H](C)[C@H](O)[C@@H](O)[C@H]6O)CC[C@]5(C)[C@H]4CC[C@]3(C)[C@H]1[C@@H]2C [Solamargine, (22R,25R)-spiro-5-en-3β-yl-α-L-rhamnopyranosyl-(1→2glu)-O-α-L-rhamnopyranosyl-(1→4glu)-β-D-gluco-pyranose]
HPLC Assay Solamargine (10% lactic acid, 1% Xanthan gum, 0 months): 20.6 μg/g cream | HPLC Assay Solamargine (10% lactic acid, 1% Xanthan gum, 3 months): 23.1 μg/g cream | HPLC Assay Solamargine (10% lactic acid, 1% Xanthan gum, 6 months): 19.8 μg/g cream | HPLC Assay Solamargine (10% lactic acid, 1% Xanthan gum, 9 months): 21.2 μg/g cream | HPLC Assay Solamargine (10% lactic acid, 1% Xanthan gum, 12 months): 23.1 μg/g cream | HPLC Assay Solamargine (10% lactic acid, 1% Xanthan gum, 18 months): 20.4 μg/g cream | HPLC Assay Solamargine (10% lactic acid, 1% Xanthan gum, 24 months): 22.1 μg/g cream | HPLC Assay Solamargine (10% lactic acid, 1% Xanthan gum, 36 months): 19.8 μg/g cream | HPLC Assay Solamargine (10% lactic acid, 1% Xanthan gum, 42 months): 19.6 μg/g cream | HPLC Assay Solamargine (10% lactic acid, 1% Xanthan gum, 48 months): 21.2 μg/g cream | HPLC Assay Solamargine (no lactic acid, no emulsion-stabilising agent, 0 months): 18.3 μg/g cream | HPLC Assay Solamargine (no lactic acid, no emulsion-stabilising agent, 3 months): 19 μg/g cream | HPLC Assay Solamargine (no lactic acid, no emulsion-stabilising agent, 6 months): 21.1 μg/g cream | HPLC Assay Solamargine (no lactic acid, no emulsion-stabilising agent, 9 months): 9.2 μg/g cream | HPLC Assay Solamargine (no lactic acid, no emulsion-stabilising agent, 12 months): 7.3 μg/g cream | HPLC Assay Solamargine (no lactic acid, no emulsion-stabilising agent, 18 months): 6.8 μg/g cream | HPLC Assay Solamargine (no lactic acid, no emulsion-stabilising agent, 24 months): 5.1 μg/g cream | HPLC Assay Solamargine (no lactic acid, no emulsion-stabilising agent, 36 months): 5.3 μg/g cream | HPLC Assay Solamargine (no lactic acid, no emulsion-stabilising agent, 42 months): 5.1 μg/g cream | HPLC Assay Solamargine (no lactic acid, no emulsion-stabilising agent, 48 months): 5.2 μg/g cream
